Source: patent publication US11957767B2, “Compound targeting prostate specific membrane antigen, and preparation method and application thereof” (YANTAI LANNACHENG BIOTECHNOLOGY CO., LTD., priority 2021, dated 2024)

Tests used:
[1] = tested on: subcutaneous transplanted tumor, prostate cancer (22RV1); assay: Uptake of 177Lu labeled complex in subcutaneous transplanted tumor model mice with prostate cancer (tumor uptake and tissue distribution); type: in vivo; details: 24 h after intravenous tail injection of 5 MBq; 22RV1 tumor model mice; FIG. 1
Protocol: The compound in Example 31 or another prior radioactive probe targeting PSMA was injected into subcutaneous transplanted tumor model mice with prostate cancer, and uptake results in tumors and distribution results in tissues were compared. A specific plan is as follows.
The subcutaneous transplanted tumor model mice with prostate cancer (22RV1) were randomly divided into 3 groups including an experimental group, a control group A and a control group B with 3 mice in each group.
[…] complex with purity of greater than 95% was prepared according to the method in Example 31. The complex is obtained by labeling compound 10 in Example 1 with ^177Lu, which was used as medicine B for the experimental group in the experiment. […]
5 MBq of medicine B, the medicine A and the medicine C were intravenously injected into tails of the mice in the experimental group, the control group A and the control group B, respectively. […] The obtained tissues were weighed, and measured by a y counter to obtain the radioactive counting of samples in the experimental group, the control group A and the control group B. Measured data were subtracted from the background, the decay time was corrected, and then average values were obtained. The data was expressed as the percentage of injected dose per gram tissue (% ID/g) of the dose uptake in tissues per gram in the injected dose.

[2] = tested on: PSMA positive lesions; details: human, in vivo; cited from earlier work

O=C([O-])CN1CCN(CC(=O)[O-])CCN(CC(=O)NCC2CCC(C(=O)N[C@@H](Cc3ccc4ccccc4c3)C(=O)NCCCC[C@H](NC(=O)N[C@@H](CCC(=O)O)C(=O)O)C(=O)O)CC2)CCN(CC(=O)[O-])CC1.[177Lu+3] (some centres unmarked) [^177Lu-PSMA 617]
uptake in tumors [1]: 7.60±1.22 % ID/g
patients with no response to therapy [2]: About 30%
